Legend:
[1] = biological target: T1, serotoninergic 5-HT1A receptor (Homo sapiens, UniProt P08908); assay: Binding assay 5-HT1A (h), [3H]8-OH-DPAT, HEK-293 cells; design: expressed in transfected cells; host or cells: HEK-293 cells; details: read-out: 5-HT1A
T1 sequence (P08908 1-422): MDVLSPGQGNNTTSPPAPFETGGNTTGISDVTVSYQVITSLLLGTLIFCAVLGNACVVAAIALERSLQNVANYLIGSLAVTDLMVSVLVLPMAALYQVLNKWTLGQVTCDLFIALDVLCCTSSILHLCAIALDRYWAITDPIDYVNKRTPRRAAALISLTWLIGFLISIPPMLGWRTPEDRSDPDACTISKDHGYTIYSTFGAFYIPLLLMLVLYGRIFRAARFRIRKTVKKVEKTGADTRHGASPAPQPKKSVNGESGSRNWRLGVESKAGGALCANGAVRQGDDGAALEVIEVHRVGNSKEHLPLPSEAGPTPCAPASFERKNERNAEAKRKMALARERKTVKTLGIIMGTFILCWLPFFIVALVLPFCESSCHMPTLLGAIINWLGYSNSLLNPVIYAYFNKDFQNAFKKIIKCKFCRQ
Procedure, shortened: (§1)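 Specific ligand binding was taken as total minus non-specific binding, with the latter defined in the presence of surplus unlabelled ligand. Each compound was tested at a single 1×10^−6 M concentration.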

[2] = biological target: T2, serotonine transporter (SERT) receptor (Homo sapiens, UniProt P31645); assay: Binding assay SERT (h), [3H]imipramine, CHO cells; details: read-out: SERT [%]
T2 construct: expressed in transfected cells; host or cells: CHO cells
T2 sequence (P31645 whole entry): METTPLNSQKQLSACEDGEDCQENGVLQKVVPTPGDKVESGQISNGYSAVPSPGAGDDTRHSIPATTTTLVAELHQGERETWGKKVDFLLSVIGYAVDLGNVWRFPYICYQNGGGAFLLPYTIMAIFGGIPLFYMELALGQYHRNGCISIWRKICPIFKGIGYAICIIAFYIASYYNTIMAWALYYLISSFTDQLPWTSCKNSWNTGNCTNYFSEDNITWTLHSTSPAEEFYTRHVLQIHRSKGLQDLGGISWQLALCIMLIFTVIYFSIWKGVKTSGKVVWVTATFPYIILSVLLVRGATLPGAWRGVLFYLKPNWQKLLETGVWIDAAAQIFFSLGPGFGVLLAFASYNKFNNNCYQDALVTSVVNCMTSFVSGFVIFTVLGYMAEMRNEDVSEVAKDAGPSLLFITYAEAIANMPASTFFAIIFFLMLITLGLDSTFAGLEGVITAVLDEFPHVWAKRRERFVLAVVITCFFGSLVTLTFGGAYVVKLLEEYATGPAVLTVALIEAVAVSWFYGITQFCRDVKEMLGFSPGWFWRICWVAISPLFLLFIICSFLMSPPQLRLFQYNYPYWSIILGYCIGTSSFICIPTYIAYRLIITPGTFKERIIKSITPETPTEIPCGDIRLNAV
Procedure, shortened: as §1

adrenergic α2C receptor = biological target: T3, adrenergic α2C receptor (Homo sapiens, UniProt P18825); assay: Binding assay α2C (h), [3H]RX 821002, CHO cells; design: expressed in transfected cells; host or cells: CHO cells; details: read-out: α2C [%]
T3 sequence (P18825 1-462): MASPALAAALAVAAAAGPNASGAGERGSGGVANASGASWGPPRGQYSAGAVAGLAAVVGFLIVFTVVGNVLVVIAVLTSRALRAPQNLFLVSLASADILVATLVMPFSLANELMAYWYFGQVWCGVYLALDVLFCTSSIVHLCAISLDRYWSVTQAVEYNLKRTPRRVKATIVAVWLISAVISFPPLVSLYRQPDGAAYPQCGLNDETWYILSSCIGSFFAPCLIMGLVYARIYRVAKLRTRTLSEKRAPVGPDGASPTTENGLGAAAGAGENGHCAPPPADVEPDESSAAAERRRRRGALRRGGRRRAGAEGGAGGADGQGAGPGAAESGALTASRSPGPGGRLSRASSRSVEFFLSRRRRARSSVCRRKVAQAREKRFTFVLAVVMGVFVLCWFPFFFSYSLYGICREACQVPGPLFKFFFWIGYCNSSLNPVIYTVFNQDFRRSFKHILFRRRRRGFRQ
Procedure, shortened: as §1

dopaminergic D3 receptor = dopaminergic D3 receptor (Homo sapiens, UniProt P35462); assay: Binding assay D3 (h), [3H]methyl-spiperone, CHO cells; design: expressed in transfected cells; host or cells: CHO cells; details: read-out: D3 [%]
dopaminergic D3 receptor, sequence (P35462 whole entry): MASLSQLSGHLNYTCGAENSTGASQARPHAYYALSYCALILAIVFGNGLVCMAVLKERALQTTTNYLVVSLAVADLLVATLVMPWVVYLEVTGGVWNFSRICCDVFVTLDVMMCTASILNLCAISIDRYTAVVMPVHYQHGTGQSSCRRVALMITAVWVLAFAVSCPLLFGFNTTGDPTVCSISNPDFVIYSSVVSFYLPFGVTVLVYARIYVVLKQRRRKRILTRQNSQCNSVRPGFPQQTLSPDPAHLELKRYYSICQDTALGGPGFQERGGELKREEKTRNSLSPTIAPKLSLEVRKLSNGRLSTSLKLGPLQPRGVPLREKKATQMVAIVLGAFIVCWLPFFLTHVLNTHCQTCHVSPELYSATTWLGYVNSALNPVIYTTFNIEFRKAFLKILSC
Procedure, shortened: as §1

adrenergic α1 receptor = assay: Binding assay α1 (non-selective), [3H]prazosin, rat cerebral cortex; details: percent inhibition of control specific binding; compounds tested at 1×10^−6 M
Procedure, shortened: as §1

sigma σ receptor = assay: Binding assay σ (non-selective), [3H]DTG, rat cerebral cortex; details: percent inhibition of control specific binding; compounds tested at 1×10^−6 M
Procedure, shortened: as §1

[3] = biological target: serotoninergic 5-HT6 receptor (Homo sapiens, UniProt P50406); assay: Binding assay 5-HT6 (h), [3H]LSD, CHO cells; design: expressed in transfected cells; host or cells: CHO cells; details: read-out: 5-HT6
serotoninergic 5-HT6 receptor, sequence (P50406 whole entry): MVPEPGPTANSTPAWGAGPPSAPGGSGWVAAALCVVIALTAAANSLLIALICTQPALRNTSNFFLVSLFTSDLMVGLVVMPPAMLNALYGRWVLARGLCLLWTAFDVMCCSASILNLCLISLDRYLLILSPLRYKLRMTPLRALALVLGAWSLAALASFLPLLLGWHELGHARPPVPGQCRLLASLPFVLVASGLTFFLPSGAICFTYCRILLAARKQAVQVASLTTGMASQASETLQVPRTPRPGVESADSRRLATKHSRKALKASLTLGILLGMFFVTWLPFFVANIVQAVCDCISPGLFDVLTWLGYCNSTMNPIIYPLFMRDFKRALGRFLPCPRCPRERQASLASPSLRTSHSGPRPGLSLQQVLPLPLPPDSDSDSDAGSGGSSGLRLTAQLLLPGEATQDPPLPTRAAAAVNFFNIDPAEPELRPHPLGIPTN
Procedure, shortened: as §1

[4] = biological target: serotoninergic 5-HT2A receptor (Homo sapiens, UniProt P28223); assay: Binding assay 5-HT2A (h), [3H]ketanserin, HEK-293 cells; design: expressed in transfected cells; host or cells: HEK-293 cells; details: read-out: 5-HT2A
serotoninergic 5-HT2A receptor, sequence (P28223 whole entry): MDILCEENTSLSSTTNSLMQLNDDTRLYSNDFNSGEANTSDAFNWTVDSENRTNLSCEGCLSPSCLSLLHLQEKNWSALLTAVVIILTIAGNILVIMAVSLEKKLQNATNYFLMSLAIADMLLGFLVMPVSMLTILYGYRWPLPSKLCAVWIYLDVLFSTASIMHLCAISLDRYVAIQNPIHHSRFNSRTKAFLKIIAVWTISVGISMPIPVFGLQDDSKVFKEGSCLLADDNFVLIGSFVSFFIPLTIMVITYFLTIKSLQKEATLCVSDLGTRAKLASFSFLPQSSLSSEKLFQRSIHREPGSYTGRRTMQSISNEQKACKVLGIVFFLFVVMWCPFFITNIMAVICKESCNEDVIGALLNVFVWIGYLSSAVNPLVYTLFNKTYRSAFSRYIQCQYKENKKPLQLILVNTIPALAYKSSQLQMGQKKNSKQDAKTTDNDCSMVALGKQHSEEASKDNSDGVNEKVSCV
Procedure, shortened: as §1

[5] = biological target: histaminergic H1 receptor (Homo sapiens, UniProt P35367); assay: Binding assay H1 (h), [3H]pyrilamine, HEK-293 cells; design: expressed in transfected cells; host or cells: HEK-293 cells; details: read-out: H1 [%]
histaminergic H1 receptor, sequence (P35367 whole entry): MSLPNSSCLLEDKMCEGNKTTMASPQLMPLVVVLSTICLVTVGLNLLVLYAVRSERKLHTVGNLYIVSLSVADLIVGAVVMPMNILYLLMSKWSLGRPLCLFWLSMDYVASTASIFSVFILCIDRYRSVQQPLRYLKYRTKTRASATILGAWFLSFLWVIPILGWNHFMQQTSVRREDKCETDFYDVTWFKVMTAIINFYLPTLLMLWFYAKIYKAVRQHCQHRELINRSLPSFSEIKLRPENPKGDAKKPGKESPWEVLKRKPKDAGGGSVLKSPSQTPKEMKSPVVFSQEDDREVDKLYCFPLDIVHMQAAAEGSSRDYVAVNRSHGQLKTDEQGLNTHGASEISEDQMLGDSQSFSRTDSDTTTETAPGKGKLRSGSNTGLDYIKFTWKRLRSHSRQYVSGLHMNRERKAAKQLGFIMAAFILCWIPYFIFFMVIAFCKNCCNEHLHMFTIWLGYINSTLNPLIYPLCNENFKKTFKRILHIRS
Procedure, shortened: as §1

[6] = biological target: T4, serotoninergic receptor 5-HT2C (Homo sapiens, UniProt P28335); assay: Binding assay 5-HT2C (h), [3H]mesulergine, HEK-293 cells; details: read-out: 5-HT2C [%]
T4 construct: expressed in transfected cells; host or cells: HEK-293 cells
T4 sequence (P28335 33-458): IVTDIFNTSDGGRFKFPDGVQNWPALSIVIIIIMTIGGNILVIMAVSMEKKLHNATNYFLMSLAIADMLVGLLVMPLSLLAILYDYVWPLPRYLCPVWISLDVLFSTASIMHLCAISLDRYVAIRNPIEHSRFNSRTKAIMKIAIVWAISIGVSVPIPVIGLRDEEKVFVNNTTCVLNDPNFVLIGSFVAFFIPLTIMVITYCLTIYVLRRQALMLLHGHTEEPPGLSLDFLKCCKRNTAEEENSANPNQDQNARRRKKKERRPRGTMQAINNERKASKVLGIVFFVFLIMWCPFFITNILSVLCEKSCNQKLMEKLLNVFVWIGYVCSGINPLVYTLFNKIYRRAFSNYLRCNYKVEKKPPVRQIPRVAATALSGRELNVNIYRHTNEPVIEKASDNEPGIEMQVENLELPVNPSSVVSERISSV
Procedure, shortened: as §1

muscarinic M3 receptor = biological target: T5, muscarinic M3 receptor (Homo sapiens, UniProt P20309); assay: Binding assay M3 (h), [3H]4-DAMP, CHO cells; details: read-out: M3 [%]
T5 construct: expressed in transfected cells; host or cells: CHO cells
T5 sequence (P20309 whole entry): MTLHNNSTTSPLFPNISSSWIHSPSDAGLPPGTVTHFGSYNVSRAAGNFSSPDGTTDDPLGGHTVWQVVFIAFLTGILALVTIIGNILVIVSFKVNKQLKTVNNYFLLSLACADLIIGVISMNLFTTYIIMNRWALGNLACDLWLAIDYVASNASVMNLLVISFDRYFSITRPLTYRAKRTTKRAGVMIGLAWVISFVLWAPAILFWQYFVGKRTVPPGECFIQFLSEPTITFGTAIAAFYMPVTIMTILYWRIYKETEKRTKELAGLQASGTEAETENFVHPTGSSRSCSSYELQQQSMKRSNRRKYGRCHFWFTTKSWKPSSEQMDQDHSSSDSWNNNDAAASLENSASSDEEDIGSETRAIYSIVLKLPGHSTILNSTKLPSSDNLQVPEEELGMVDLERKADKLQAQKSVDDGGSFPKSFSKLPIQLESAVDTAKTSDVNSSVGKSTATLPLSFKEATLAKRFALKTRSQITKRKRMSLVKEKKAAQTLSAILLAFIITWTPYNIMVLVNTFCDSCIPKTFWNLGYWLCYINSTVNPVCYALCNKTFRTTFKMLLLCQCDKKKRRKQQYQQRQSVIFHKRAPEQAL
Procedure, shortened: as §1

[7] = biological target: serotoninergic 5-HT7 receptor (Homo sapiens, UniProt P34969); assay: Binding assay 5-HT7 (h), [3H]LSD, CHO cells; design: expressed in transfected cells; host or cells: CHO cells; details: read-out: 5-HT7
serotoninergic 5-HT7 receptor, sequence (P34969 whole entry): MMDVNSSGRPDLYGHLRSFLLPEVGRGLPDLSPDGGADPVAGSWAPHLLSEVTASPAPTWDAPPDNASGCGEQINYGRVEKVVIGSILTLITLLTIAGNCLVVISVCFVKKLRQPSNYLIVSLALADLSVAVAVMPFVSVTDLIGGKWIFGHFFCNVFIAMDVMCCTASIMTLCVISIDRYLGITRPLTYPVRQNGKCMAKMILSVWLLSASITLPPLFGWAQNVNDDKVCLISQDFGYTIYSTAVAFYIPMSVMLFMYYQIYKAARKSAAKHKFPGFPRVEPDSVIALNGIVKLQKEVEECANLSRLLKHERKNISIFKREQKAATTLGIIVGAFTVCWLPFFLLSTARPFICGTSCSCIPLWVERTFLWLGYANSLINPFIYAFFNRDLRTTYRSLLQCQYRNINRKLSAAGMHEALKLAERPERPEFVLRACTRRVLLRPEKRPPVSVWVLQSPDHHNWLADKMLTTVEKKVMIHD
Procedure, shortened: as §1

dopaminergic D2 receptor = dopaminergic D2 receptor (Homo sapiens, UniProt P14416); assay: Binding assay D2S (h), [3H]methyl-spiperone, HEK-293 cells; design: expressed in transfected cells; host or cells: HEK-293 cells; details: read-out: D2 [%]
dopaminergic D2 receptor, sequence (P14416 1-414 isoform P14416-2): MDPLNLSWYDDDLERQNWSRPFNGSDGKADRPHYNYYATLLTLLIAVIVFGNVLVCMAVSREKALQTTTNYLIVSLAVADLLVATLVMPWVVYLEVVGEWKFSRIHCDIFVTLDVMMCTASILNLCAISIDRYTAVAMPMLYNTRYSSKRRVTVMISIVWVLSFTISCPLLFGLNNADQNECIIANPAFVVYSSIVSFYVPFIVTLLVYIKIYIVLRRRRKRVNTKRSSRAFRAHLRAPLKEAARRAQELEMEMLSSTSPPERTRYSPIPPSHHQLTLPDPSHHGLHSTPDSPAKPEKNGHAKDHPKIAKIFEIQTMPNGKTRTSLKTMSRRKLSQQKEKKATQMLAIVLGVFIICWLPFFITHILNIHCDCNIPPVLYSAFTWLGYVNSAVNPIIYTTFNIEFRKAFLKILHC
Procedure, shortened: as §1

Row | SMILES | inhibition at 1 µM [1] [%] | inhibition at 1 µM [2] [%] | inhibition at 1 µM (adrenergic α2C receptor) [%] | inhibition at 1 µM (dopaminergic D3 receptor) [%] | α1 [%] (adrenergic α1 receptor) | σ [%] (sigma σ receptor) | inhibition at 1 µM [3] [%] | inhibition at 1 µM [4] [%] | inhibition at 1 µM [5] [%] | inhibition at 1 µM [6] [%] | inhibition at 1 µM (muscarinic M3 receptor) [%] | inhibition at 1 µM [7] [%] | inhibition at 1 µM (dopaminergic D2 receptor) [%]
1 | CC(C)(C)c1ccc(S(=O)(=O)NCCCCN2CCC(c3noc4cc(F)ccc34)CC2)cc1 [Compound 301, 4-tert-Butyl-N-[4-[4-(6-fluoro-1,2-benzoxazol-3-yl)piperidin-1-yl]butyl]benzenesulphonamide] | 77 | 45 | 98 | 96 | 96 | 73 | 94 | 101 | 88 | 79 | 18 | 98 | 96
2 | O=S(=O)(NCCCN1CCC(c2noc3cc(F)ccc23)CC1)c1cc2cccnc2[nH]1 [Compound 357, N-[3-[4-(6-Fluoro-1,2-benzoxazol-3-yl)piperidin-1-yl]propyl]-1H-pyrrolo[2,3-b]pyridine-2-sulphonamide] | 63 | 41 | 94 | 94 | 99 | 64 | 94 | 101 | 84 | 83 | 25 | 99 | 99
3 | O=S(=O)(NCCCN1CCN(c2nsc3ccccc23)CC1)c1csc2ccccc12 [Compound 263, N-[3-[4-(1,2-Benzothiazol-3-yl)piperazin-1-yl]propyl]benzothiophene-3-sulphonamide] | 98 | 87 | 93 | 98 | 90 | 49 | 96 | 102 | 93 | 87 | 7 | 98 | 98
4 | O=S(=O)(NCCCCN1CCC(c2noc3cc(F)ccc23)CC1)c1ccc2c(c1)OCCO2 [Compound 321, N-[4-[4-(6-Fluoro-1,2-benzoxazol-3-yl)piperidin-1-yl]butyl]-2,3-dihydro-1,4-benzodioxine-6-sulphonamide] | 78 | 61 | 100 | 98 | 98 | 74 | 89 | 100 | 95 | 65 | 14 | 100 | 98
5 | O=S(=O)(NCCN1CC=C(c2c[nH]c3ccc(F)cc23)CC1)c1cccc(F)c1 [Compound 439, 3-Fluoro-N-[2-[4-(5-fluoro-1H-indol-3-yl)-3,6-dihydro-2H-pyridin-1-yl]ethyl]benzenesulphonamide] | 99 | 93 | 68 | 95 | 27 | 80 | 92 | 83 | 18 | 41 | 16 | 78 | 97
6 | N#Cc1cccc(S(=O)(=O)NCCCN2CCN(c3nsc4ccccc34)CC2)c1 [Compound 74, N-[3-[4-(1,2-Benzothiazol-3-yl)piperazin-1-yl]propyl]-3-cyanobenzenesulphonamide] | 99 | 79 | 92 | 92 | 94 | 34 | 95 | 102 | 90 | 78 | 17 | 97 | 93
7 | O=c1[nH]c2cccc(N3CCN(CCCNS(=O)(=O)c4cccc(Cl)c4)CC3)c2[nH]1 [Compound 174, 3-Chloro-N-[3-[4-(2-oxo-1,3-dihydrobenzimidazol-4-yl)piperazin-1-yl]propyl]benzenesulphonamide] | 98 | 11 | 55 | 96 | 86 | −16 | 4 | -24 | 25 | 0 | 15 | 92 | 91
8 | O=S(=O)(NCCCCN1CCN(c2nsc3ccccc23)CC1)c1cccc(O)c1 [Compound 231, N-[4-[4-(1,2-Benzothiazol-3-yl)piperazin-1-yl]butyl]-3-hydroxybenzenesulphonamide] | 97 | 59 | 99 | 97 | 96 | 62 | 95 | 101 | 97 | 87 | 11 | 99 | 99
9 | O=S(=O)(NCCCN1CCN(c2nsc3ccccc23)CC1)c1ccc(Cl)s1 [Compound 196, N-[3-[4-(1,2-Benzothiazol-3-yl)piperazin-1-yl]propyl]-5-chloro-thiophene-2-sulphonamide] | 99 | 75 | 95 | 97 | 93 | 66 | 92 | 102 | 93 | 89 | 18 | 100 | 98

Source: patent US8822517B2, “Arylosulfonamides for the treatment of CNS diseases” (Adamed SP. Z O.O., priority 2010, dated 2014)
